In US10376518B2, “Methods for the treatment of autoimmune diseases” (UCL Business PLC, priority 2013, dated 2019):

Columns and labels:
[1] = system: FOXP3 expression by CD8+ T cells; test: CD8+FOXP3+ Treg induction in PBMC cultures, flow cytometry; type: cell-based, human; settings: for FOXP3 expression by CD8+ T cells: 24 h
Source text: Isolation of cell populations. PBMC were isolated by Ficoll-Paque Plus (GE Healthcare) gradient centrifugation, resuspended to 10^7 cells/ml in FCS (Biosera) and 5% DMSO (Sigma-Aldrich), and frozen until subsequent use. CD8^+ T cells were negatively isolated and monocytes, CD4^+ T cells or B cells were depleted from PBMCs by positive selection with magnetic beads (Miltenyi, Biotec). Monocyte subsets or CD8^+ T cells interacting with monocytes were FACS sorted with the FACSAria (Beckton, Dickinson) based on expression of HLA-DR and CD14 or CD8 respectively.
(§1) Cell Cultures. For CD8^+FoxP3^+ Treg induction, PBMC were cultured with anti-CD3 mAb (OKT3 (e-bioscience), HIT3A (e-bioscience), UCHT1 (e-bioscience), Otelixizumab (GSK)) or anti-CD3 F(Ab)2 (GSK) in RPMI1640, (Sigma-Aldrich), 10% fetal calf serum (Biosera) or human serum type AB (Lonza), 100 U/mg/ml penicillin/streptomycin (Sigma-Aldrich) for 24 h or 5 d. Alternatively, 1 μg/ml of agonist antibodies against CD28 (e-bioscience) or TNFRII (Hycult Biotech) in combination with OKT3 were utilized in PBMC cultures depleted of monocytes. For cytokine neutralization cultures, PBMC were cultured with OKT3 alone or in the presence of an isotype control or 10 μg/ml anti-TNF-α (R&D systems) or anti-IL-1β mAbs (R&D systems), 12.5 μg/ml anti-TGF-β mAb (R&D systems) or 0.1 μg/ml anti-IL-6 mAb (R&D systems). To inhibit monocyte activation of CD8^+ T cells, 10 μg/ml anti-CD80 (R&D systems) or anti-CD86 (R&D systems) were utilized. To convert a non-responder CD8^+ T cell into a responder, whole PBMC were incubated with 10 μg/ml TAPI (Enzo Life Sciences) for 1 h at room temperature, or with 5 μM selective p38 MAPK inhibitor, BIRB 796 (Merck Millipore), for 2 hours at 37° C. before culture with OKT3.
Flow cytometry and soluble cytokine detection. Cell surface staining and intracellular staining were performed using the eBioscience FOXP3 staining buffer set as per manufacturers' instructions. For CD8^+ T cell staining, CD8-FITC and CD4-V450 were used to identify a pure CD8^+ T cell population. CD25-PECy7, TNFRII-APC, CTLA-4-PE, TGFβ-APC were used for characterization. For monocyte and B cells staining, CD14-APC, CD16-PE, HLA-DR-PECy7, CD19-APC were used in combination with membrane TNFα-PE. FOXP3-PE was used to detect intracellular FOXP3. For analysis of human intracellular cytokine production, PBMC were stimulated for 4 h with 50 ng/ml PMA, 250 ng/ml ionomycin (Sigma-Aldrich), and Golgi-Plug (BD, Biosciences) in complete medium. IFN-γ-PECy7, IL-10-APC, IL-2-APC, IL-17-APC, TNF-α-APC and appropriate isotype controls were utilized. For staining of membrane TNF-α versus soluble TNF-α production by monocytes, PBMC were cultured with anti-CD3 mAb alone, or after pre-incubation with TAPI, for 24 h. Supernatants were subsequently removed and replaced with the aforementioned stimulation mix for 4 h. PBMC were then stained for CD14-APC and membrane TNF-α-PE, before intracellular staining for TNF-α-FITC. Data were acquired on an LSRII (Beckton, Dickinson) and analyzed with FlowJo (TreeStar). IL-17 and IFN-γ levels from suppression assay supernatants were measured by mosaic ELISA (R&D Systems) as described by manufacturer's instruction and analyzed by Quansys Q-View™ Software (R&D Systems).

[2] = system: membrane TNF-α expression by monocytes; test: membrane TNF-α staining of monocytes in PBMC, flow cytometry; type: cell-based, human; settings: PBMC pre-incubated 1 h at room temperature, 10 μg/ml
Description: as §1, with “To convert a non-responder CD8^+ T cell into a responder, whole PBMC were incubated with 10 μg/ml TAPI (Enzo Life Sciences) for 1 h at room temperature, or with 5 μM selective p38 MAPK inhibitor, BIRB 796 (Merck Millipore), for 2 hours at 37° C. before culture with OKT3.” left out
Flow cytometry and soluble cytokine detection. […] Data were acquired on an LSRII (Beckton, Dickinson) and analyzed with FlowJo (TreeStar). IL-17 and IFN-γ levels from suppression assay supernatants were measured by mosaic ELISA (R&D Systems) as described by manufacturer's instruction and analyzed by Quansys Q-View™ Software (R&D Systems).

[3] = fixed monocytes reintroduced to autologous monocyte-depleted PBMC

Compound: Cc1ccc(-n2nc(C(C)(C)C)cc2NC(=O)Nc2ccc(OCCN3CCOCC3)c3ccccc23)cc1 [BIRB 796]
- FOXP3 expression by CD8+ T cells that did not initially respond to CD3-specific stimulation ([1]; RA PBMC pre-incubated 5 μM, 2 h, 37° C., then OKT3 24 h, non-responders): resulted in FOXP3 expression
- response of CD8+ T cells that could already induce FOXP3 expression ([1]; RA PBMC pre-incubated 5 μM, 2 h, 37° C., then OKT3 24 h, responders): did not alter the response

Compound: F(Ab)2 of Otelixizumab: F(Ab)2 fragment of the anti-CD3 antibody Otelixizumab (GSK)
- FOXP3 expression by CD8+ T cells [1, 3]: successfully induced FOXP3 expression

Compound: OKT3: anti-CD3 mAb clone (e-bioscience)
- FOXP3 expression by CD8+ T cells [1, 3]: successfully induced FOXP3 expression
- FOXP3 expression by CD8+ T cells ([1]; whole RA PBMC, 1 μg/ml): successfully increased levels of FOXP3 expression

Compound: TAPI
- maximal induction of CD8+FOXP3+ Treg from prior non-responders ([1]; RA PBMC pre-incubated with TAPI, then anti-CD3 mAb 24 h): approximately 50%
- induction of CD8+FOXP3+ Treg in healthy individuals ([1]; healthy PBMC pre-incubated with TAPI, then OKT3 24 h): this effect was not observed in healthy individuals
- expression of membrane TNF-α by monocytes [2]: increased expression of membrane TNF-α by monocytes
